Data taken from patent US6355799B1, “Substituted benzene compounds, process for their preparation, and herbicidal and defoliant compositions containing them” (ISK Americas Incorporated, priority 1997, dated 2002).

Assays:
Type in all cases: in vivo
[1] = system: redroot pigweed (Amaranthus retroflexus, AMARE); assay: Post-emerge test, greenhouse herbicide activity screening; conditions: post-emerge, 14 days after application, rating scale 0-100
Procedure, shortened: (§1)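 Compounds in acetone were track-sprayed at 187 l/ha, 15–1000 g ai/ha, onto sandy loam pots. Pre-emerge seeds were sown one day before spraying, with surface watering afterwards. Post-emerge plants were at the 2–3 leaf stage and sprayed with 0.25% v/v non-ionic surfactant. Injury was rated 0–100 at 14 days.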

[2] = system: green foxtail (Setaria viridis, SETVI); assay: as above; conditions: post-emerge, 14 days after application, rating scale 0-100
Procedure, shortened: as §1

[3] = system: lambsquarters (Chenopodium album, CHEAL); assay: as above; conditions: post-emerge, 14 days after application, rating scale 0-100
Procedure, shortened: as §1

[4] = system: barnyardgrass (Echinochloa crus-galli, ECHCG); assay: as above; conditions: post-emerge, 14 days after application, rating scale 0-100
Procedure, shortened: as §1

[5] = system: velvetleaf (Abutilon theophrasti, ABUTH); assay: as above; conditions: post-emerge, 14 days after application, rating scale 0-100
Procedure, shortened: as §1

[6] = system: johnsongrass (Sorghum halepense, SORHA); assay: as above; conditions: post-emerge, 14 days after application, rating scale 0-100
Procedure, shortened: as §1

[7] = system: common ragweed (Ambrosia artemisizfolia L., AMBEL); assay: as above; conditions: post-emerge, 14 days after application, rating scale 0-100
Procedure, shortened: as §1

[8] = system: large crabgrass (Digitaria sanguinalis, DIGSA); assay: as above; conditions: post-emerge, 14 days after application, rating scale 0-100
Procedure, shortened: as §1

[9] = system: ivyleaf morningglory (Ipomoea hederacea, IPOHE); assay: as above; conditions: post-emerge, 14 days after application, rating scale 0-100
Procedure, shortened: as §1

[10] = system: sicklepod (Cassia obtusifolia, CASOB); assay: as above; conditions: post-emerge, 14 days after application, rating scale 0-100
Procedure, shortened: as §1

[11] = system: field corn (Zea mays L., var. Dekalb 535, CORN); assay: Post-emerge test, crop safety; conditions: post-emerge, 14 days after application, rating scale 0-100
Procedure, shortened: (§2)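 Sandy loam pots; pre-emerge: sown 1 d pre-spray, surface-watered after, then bottom-watered. Post-emerge: sown 8–21 d before, 2–3 leaf stage, + 0.25% v/v NIS, bottom-watered. Acetone, 187 l/ha track spray, 15–1000 g ai/ha. 0–100 injury score, day 14.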

[12] = system: upland rice (Oryza sp., var. Tebonnet, RICE); assay: Post-emerge test, crop safety; conditions: post-emerge, 14 days after application, rating scale 0-100
Procedure, shortened: as §2

[13] = system: green foxtail (Setaria viridis, SETVI); assay: Pre-emerge test, greenhouse herbicide activity screening; conditions: rated 14 days after application, 0 = no damage, 100 = complete death
Procedure, shortened: as §2

[14] = system: lambsquarters (Chenopodium album, CHEAL); assay: as above; conditions: rated 14 days after application, 0 = no damage, 100 = complete death
Procedure, shortened: as §2

[15] = system: barnyardgrass (Echinochloa crus-galli, ECHCG); assay: as above; conditions: rated 14 days after application, 0 = no damage, 100 = complete death
Procedure, shortened: as §2

[16] = system: velvetleaf (Abutilon theophrasti, ABUTH); assay: as above; conditions: rated 14 days after application, 0 = no damage, 100 = complete death
Procedure, shortened: as §2

[17] = system: johnsongrass (Sorghum halepense, SORHA); assay: as above; conditions: rated 14 days after application, 0 = no damage, 100 = complete death
Procedure, shortened: as §2

[18] = system: common ragweed (Ambrosia artemisizfolia L., AMBEL); assay: as above; conditions: rated 14 days after application, 0 = no damage, 100 = complete death
Procedure, shortened: as §2

[19] = system: large crabgrass (Digitaria sanguinalis, DIGSA); assay: as above; conditions: rated 14 days after application, 0 = no damage, 100 = complete death
Procedure, shortened: as §2

[20] = system: ivyleaf morningglory (Ipomoea hederacea, IPOHE); assay: as above; conditions: rated 14 days after application, 0 = no damage, 100 = complete death
Procedure, shortened: as §2

[21] = system: sicklepod (Cassia obtusifolia, CASOB); assay: as above; conditions: rated 14 days after application, 0 = no damage, 100 = complete death
Procedure, shortened: as §2

[22] = system: field corn (Zea mays L., var. Dekalb 535, CORN); assay: Pre-emerge test, crop safety; conditions: rated 14 days after application, 0 = no damage, 100 = complete death
Procedure, shortened: as §1

[23] = system: upland rice (Oryza sp., var. Tebonnet, RICE); assay: Pre-emerge test, crop safety; conditions: rated 14 days after application, 0 = no damage, 100 = complete death
Procedure, shortened: as §1

[24] = system: redroot pigweed (Amaranthus retroflexus, AMARE); assay: Pre-emerge test, greenhouse herbicide activity screening; conditions: rated 14 days after application, 0 = no damage, 100 = complete death
Procedure, shortened: as §2

## COc1c(Cl)cc(F)c(-n2c(=O)cc(C(F)(F)F)n(C)c2=O)c1NC(=O)c1cc([N+](=O)[O-])cc([N+](=O)[O-])c1 [2-70]
[1]; 63 g ai/ha
  phytotoxicity rating AMARE: 70
[1]; 250 g ai/ha
  phytotoxicity rating AMARE: 70
[2]; 63 g ai/ha
  phytotoxicity rating SETVI: 20
[2]; 250 g ai/ha
  phytotoxicity rating SETVI: 0
[3]; 63 g ai/ha
  phytotoxicity rating CHEAL: 50
[3]; 250 g ai/ha
  phytotoxicity rating CHEAL: 70
[4]; 63 g ai/ha
  phytotoxicity rating ECHCG: 0
[4]; 250 g ai/ha
  phytotoxicity rating ECHCG: 0
[5]; 63 g ai/ha
  phytotoxicity rating ABUTH: 100
[5]; 250 g ai/ha
  phytotoxicity rating ABUTH: 100
[6]; 63 g ai/ha
  phytotoxicity rating SORHA: 0
[6]; 250 g ai/ha
  phytotoxicity rating SORHA: 0
[7]; 63 g ai/ha
  phytotoxicity rating AMBEL: 30
[7]; 250 g ai/ha
  phytotoxicity rating AMBEL: 30
[8]; 63 g ai/ha
  phytotoxicity rating DIGSA: 0
[8]; 250 g ai/ha
  phytotoxicity rating DIGSA: 0
[9]; 63 g ai/ha
  phytotoxicity rating IPOHE: 60
[9]; 250 g ai/ha
  phytotoxicity rating IPOHE: 60
[10]; 63 g ai/ha
  phytotoxicity rating CASOB: 10
[10]; 250 g ai/ha
  phytotoxicity rating CASOB: 20
[11]; 63 g ai/ha
  phytotoxicity rating CORN: 0
[11]; 250 g ai/ha
  phytotoxicity rating CORN: 0
[12]; 63 g ai/ha
  phytotoxicity rating RICE: 0
[12]; 250 g ai/ha
  phytotoxicity rating RICE: 0
[13]; 63 g ai/ha
  Pre-emerge Herbicidal Activity, phytotoxicity rating (0-100), SETVI: 0
[13]; 250 g ai/ha
  Pre-emerge Herbicidal Activity, phytotoxicity rating (0-100), SETVI: 60
[14]; 63 g ai/ha
  Pre-emerge Herbicidal Activity, phytotoxicity rating (0-100), CHEAL: 80
[14]; 250 g ai/ha
  Pre-emerge Herbicidal Activity, phytotoxicity rating (0-100), CHEAL: 100
[15]; 63 g ai/ha
  Pre-emerge Herbicidal Activity, phytotoxicity rating (0-100), ECHCG: 0
[15]; 250 g ai/ha
  Pre-emerge Herbicidal Activity, phytotoxicity rating (0-100), ECHCG: 0
[16]; 63 g ai/ha
  Pre-emerge Herbicidal Activity, phytotoxicity rating (0-100), ABUTH: 100
[16]; 250 g ai/ha
  Pre-emerge Herbicidal Activity, phytotoxicity rating (0-100), ABUTH: 90
[17]; 63 g ai/ha
  Pre-emerge Herbicidal Activity, phytotoxicity rating (0-100), SORHA: 0
[17]; 250 g ai/ha
  Pre-emerge Herbicidal Activity, phytotoxicity rating (0-100), SORHA: 0
[18]; 63 g ai/ha
  Pre-emerge Herbicidal Activity, phytotoxicity rating (0-100), AMBEL: 0
[18]; 250 g ai/ha
  Pre-emerge Herbicidal Activity, phytotoxicity rating (0-100), AMBEL: 30
[19]; 63 g ai/ha
  Pre-emerge Herbicidal Activity, phytotoxicity rating (0-100), DIGSA: 0
[19]; 250 g ai/ha
  Pre-emerge Herbicidal Activity, phytotoxicity rating (0-100), DIGSA: 20
[20]; 63 g ai/ha
  Pre-emerge Herbicidal Activity, phytotoxicity rating (0-100), IPOHE: 0
[20]; 250 g ai/ha
  Pre-emerge Herbicidal Activity, phytotoxicity rating (0-100), IPOHE: 60
[21]; 63 g ai/ha
  Pre-emerge Herbicidal Activity, phytotoxicity rating (0-100), CASOB: 0
[21]; 250 g ai/ha
  Pre-emerge Herbicidal Activity, phytotoxicity rating (0-100), CASOB: 40
[22]; 63 g ai/ha
  Pre-emerge phytotoxicity rating (0-100), crop damage, CORN: 0
[22]; 250 g ai/ha
  Pre-emerge phytotoxicity rating (0-100), crop damage, CORN: 0
[23]; 63 g ai/ha
  Pre-emerge phytotoxicity rating (0-100), crop damage, RICE: 0
[23]; 250 g ai/ha
  Pre-emerge phytotoxicity rating (0-100), crop damage, RICE: 10
[24]; 63 g ai/ha
  Pre-emerge Herbicidal Activity, phytotoxicity rating (0-100), AMARE: 70
[24]; 250 g ai/ha
  Pre-emerge Herbicidal Activity, phytotoxicity rating (0-100), AMARE: 100
